Experimental data from PubChem BioAssay (NCI).
Several values for one entry are separate records, joined by “and”; a condition that tells them apart may be missing. Identical values can stand only once.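 Values below derive from 48-hour exposures of cells grown in 96-well plates, with endpoints linearly interpolated between the two concentrations bracketing the appropriate inhibition level. GI50 marks 50% less growth. TGI denotes the concentration required for complete inhibition of growth.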

Columns and labels:
Experiment in all cases: inhibition of tumour cell growth, NCI panel, 48 h
[1] = system: MDA-MB-435
[2] = system: PC-3 prostate
[3] = system: COLO 205 colon
[4] = system: UACC-257 melanoma
[5] = system: SNB-75 CNS
[6] = system: MOLT-4 leukemia
[7] = system: OVCAR-4 ovarian
[8] = system: SK-MEL-2 melanoma
[9] = system: HS 578T breast
[10] = system: DU-145 prostate

Compound	GI50 [1] [µM]	TGI [1] [µM]	GI50 [2] [µM]	TGI [2] [µM]	GI50 [3]	TGI [3] [µM]	GI50 [4]	TGI [4] [µM]	GI50 [5] [µM]	TGI [5] [µM]	GI50 [6] [µM]	TGI [6] [µM]	GI50 [7]	TGI [7] [µM]	GI50 [8]	TGI [8] [µM]	GI50 [9] [µM]	TGI [9] [µM]	GI50 [10]	TGI [10] [µM]
C[C@]1(c2nc3c(C(N)=O)cccc3[nH]2)CCCN1	> 100	> 100	> 100	> 100	72.8 µM and > 100 µM	> 100	99.9 µM and > 100 µM	> 100	> 100	> 100	> 100	> 100	66.1 µM and > 100 µM	> 100	79.4 µM and > 100 µM	> 100	> 100	> 100	74 µM and > 100 µM	> 100
Cc1ccc(S(=O)(=O)NC(Cc2ccccc2)C(=O)CCl)cc1 (stereo not drawn)	–	30.3	–	29.5	–	32.3	–	24.9	–	28	–	–	–	18.9	–	26	–	11.3	–	31.6
O=C(Nc1ccc(Cl)cc1)c1cc(NCc2cc(O)ccc2O)ccc1O	12	27.2	1.89	4.92	5.29 µM	28.5	15.7 µM	30.3	1.99	8.99	3.28	32.9	2.9 µM	> 100	12.2 µM	27.3	9.12	55.7	13.2 µM	26.9
CC[C@H](C)[C@H](NC(=O)c1ncccn1)C(=O)N(C)[C@H](C[C@@H](OC(C)=O)c1nc(C(=O)N[C@@H](Cc2ccccc2)C[C@H](C)C(=O)OC)cs1)C(C)C	0.393	1.08	1.46	> 25	1.01 µM	4.97	2.38 µM	> 25	0.768	> 25	2.39	> 25	4.42 µM	> 25	–	–	1.25	> 25	1.78 µM	> 25
O=C(N/N=C/c1ccc([N+](=O)[O-])cc1)c1ccccc1Nc1ccnc(C(F)(F)F)c1	14.7	35.1	12.9	29.7	18.2 µM	39.8	11.6 µM	37.9	18.2	70.3	5.33	40.5	14.2 µM	56.3	–	–	2.26	49.8	11.9 µM	45.5
N#Cc1c(N)c(C(=O)c2ccc3c(c2)OCCO3)n2c1CCCC2	0.362	2.07	4.32	> 100	1.82 µM	> 23.5	–	–	1.8	7.48	4.19	> 100	> 69.1 µM	> 100	4.06 µM	> 100	3.08	> 74.9	4.45 µM	> 100
Cc1cc(C)c([I+]c2c(C)cc(C)cc2C)c(C)c1	0.327	1.24	0.259	1.14	0.342 µM	1.3	0.296 µM	1.09	0.342	1.39	–	–	0.277 µM	1.35	0.482 µM	1.61	0.795	2.68	0.622 µM	2.02
COc1ccc2c(c1)C(=O)/C(=C/c1ccc(O)cc1)O2	6.73	20.5	9.48	24.7	2.77 µM	8.97	19.8 µM	35.2	8.82	> 32.3	2.38	6.06	5.67 µM	12.7	–	–	28.6	> 86.3	9.45 µM	21.9
CC(C)(C)c1cc[n+](C[n+]2ccc(C(C)(C)C)cc2)cc1	–	> 100	–	> 100	–	> 100	–	–	–	> 100	–	> 100	–	> 100	–	> 100	–	> 100	–	> 100
CN1CCN(c2ccncc2S(=O)(=O)N2CCN(C)CC2)CC1	–	> 100	–	> 100	–	> 100	–	> 100	–	> 100	–	–	–	> 100	–	> 100	–	> 100	–	> 100
COc1ccc2cc(C(=O)N3CCC([C@@H](C)C(=O)NCc4ccc5c(c4)OCO5)CC3)[nH]c2c1	51.2	> 100	> 100	> 100	> 100 µM	> 100	–	–	17.8	78.3	> 100	> 100	> 100 µM	> 100	> 100 µM	> 100	27.9	> 100	> 100 µM	> 100
N[C@@H](Cc1c[nH]c2ccccc12)C(=O)NC1CCN(Cc2c[nH]c3ccc(Cl)cc23)CC1	5.99	18.7	6.01	19.9	2.11 µM	4.65	–	–	11.6	29.1	2.79	9.6	8.14 µM	22	16.6 µM	31.8	7.63	24.5	8.76 µM	21.2
